Reference: patent publication US8431589B2, “2,4-diaminopyrimidine derivatives” (Novartis AG, priority 2002, dated 2013)

Experiments:
[1] = target: T1, recombinant hexahistidine-tagged human FAK kinase domain (Homo sapiens, UniProt Q05397); assay: FAK assay (FRET, Biot-Y397 substrate); assay type: biochemical
T1 construct: the kinase domain of FAK (Met384-Gly706) from position 29 to 351; made in house; host or cells: baculovirus; Sf9 and ExpresSF+ insect cells
Method: All steps are performed in a 96-well black microtiter plate. Purified recombinant hexahistidine-tagged human FAK kinase domain is diluted with dilution buffer (50 mM HEPES, pH 7.5, 0.01% BSA, 0.05% Tween-20 in water) to a concentration of 94 ng/mL (2.5 nM). The reaction mixture is prepared by mixing 10 μL 5× kinase buffer (250 mM HEPES, pH 7.5, 50 μM Na3VO4, 5 mM DTT, 10 mM MgCl2, 50 mM MnCl2, 0.05% BSA, 0.25% Tween-20 in water), 20 μL water, 5 μL of 4 μM biotinylated peptide substrate (Biot-Y397) in aqueous solution, 5 μL of test compound in DMSO, and 5 μL of recombinant enzyme solution and incubated for 30 min at room temperature. The enzyme reaction is started by addition of 5 μL of 5 μM ATP in water and the mixture is incubated for 3 hours at 37° C. The reaction is terminated by addition of 200 μL of detection mixture (1 nM Eu-PT66, 2.5 μg/mL SA-(SL)APC, 6.25 mM EDTA in dilution buffer), and the FRET signal from europium to allophycocyanin is measured by ARVOsx+L (Perkin Elmer) after 30 min of incubation at room temperature. The ratio of fluorescence intensity of 665 nm to 615 nm is used as a FRET signal for data analysis in order to cancel the colour quenching effect by a test compound. The results are determined as percent inhibition of enzyme activity. […] IC50 values are determined by non-linear curve fit analysis using the OriginPro 6.1 program (OriginLab).

[2] = target: T2, human Syk protein tyrosine kinase (Homo sapiens, UniProt P43405); assay: Syk kinase assay (heterogenous DELFIA, poly(Glu, Tyr) substrate); assay type: biochemical; conditions: ATP 1 μM
T2 construct: purchased Upstate Biotechnology, Lake Placid, N.Y
Method: (§1) More particularly the compounds of the invention are active at the human ZAP-70, FAK and/or Syk protein tyrosine kinases.
(§2) ZAP-70, Lck and Syk are commercially available from Upstate Biotechnology, Lake Placid, N.Y.
Syk Kinase assay: The activities of the agents of invention are determined in a heterogenous Syk kinase assay based on the dissociation-enhanced lanthanide fluoroimmunoassay (DELFIA) technology. This method utilizes europium chelate-labelled anti-phosphotyrosine antibodies to detect phosphate transfer by Syk to a polymeric glutamic acid-tyrosine (Glu, Tyr) substrate coated onto microtiter plates as described (Braunwalder A F, Yarwood D R, Sills M A, Lipson K E. Measurement of the protein tyrosine kinase activity of c-src using time-resolved fluorometry of europium chelates. Anal. Biochem. 1996; 238(2):159-64). The amount of phosphorylation is then quantified with time-resolved, dissociation-enhanced fluorescence. Briefly, hundred μl of poly (Glu, Tyr) (4:1; 2 μg/ml in phosphate-buffered saline, PBS) are coated to ELISA plates overnight at room temperature. The poly (Glu, Tyr) solution is removed and 250 μl of 1% bovine serum albumin in PBS are added for one hour at room temperature. […] Fluorescence is determined at 615 nm (Victor2; Wallac). […] The inhibition obtained in the presence of test compounds was calculated as percent inhibition of the high control. […]

[3] = target: T3, FAK (Mus musculus, UniProt P34152); assay: Phosphorylation levels of FAK at Tyr397 (sandwich ELISA) in 4T1 cells; assay type: cell-based; conditions: 1 h incubation, read-out: IC50, 50% reduction of phosphorylation level of FAK (Tyr397)
T3 construct: endogenous in cells; host or cells: mouse mammary carcinoma 4T1 cells
Method: Phosphorylation levels of FAK at Tyr397 are quantified by the sandwich ELISA. Mouse mammary carcinoma 4T1 cells (1×10^5) are plated in wells of 96-well culture plates and incubated with or without various concentrations of a compound of formula I for 1 h in Dulbecco's modified eagle medium containing 10% FBS. The medium is removed and cells are lysed in 200 μL 50 mM Tris-HCl, pH 7.4, containing 1% NP-40, 0.25% sodium deoxycholate, 150 mM NaCl, 1 mM EDTA, 1 mM PMSF, 1 mM Na3VO4, 1 mM NaF, 1 μg/mL aprotinin, 1 μg/mL leupeptin and 1 μg/mL pepstatin. After centrifugation, the supernatants are subjected to a sandwich ELISA to quantify the phosphorylated FAK and total FAK. […] After washing with TBSN (20 mM Tris-HCl, pH 8.3, containing 300 mM NaCl, 0.1% SDS and 0.05% NP-40), total FAK is detected with 100 μL of 1 μg/ml anti-FAK polyclonal antibody (#65-6140, Upstate Biology Inc.), and phosphorylated FAK is detected with 100 μL of […] anti-phosphorylated FAK (Y397) antibody (Affinity BioReagents, #OPA1-03071) in BlockAce diluted at 1:10 with H2O. […] Absorbance at 405 nm is measured after 20 min incubation at room temperature. […]

[4] = target: T4, human ZAP-70 protein tyrosine kinase (Homo sapiens, UniProt P43403); assay: ZAP-70 kinase assay (homogenous, time-resolved FRET, LAT-11 substrate); assay type: biochemical; conditions: 4 μM ATP
T4 construct: purchased Upstate Biotechnology, Lake Placid, N.Y
T4 sequence (P43403 1-619): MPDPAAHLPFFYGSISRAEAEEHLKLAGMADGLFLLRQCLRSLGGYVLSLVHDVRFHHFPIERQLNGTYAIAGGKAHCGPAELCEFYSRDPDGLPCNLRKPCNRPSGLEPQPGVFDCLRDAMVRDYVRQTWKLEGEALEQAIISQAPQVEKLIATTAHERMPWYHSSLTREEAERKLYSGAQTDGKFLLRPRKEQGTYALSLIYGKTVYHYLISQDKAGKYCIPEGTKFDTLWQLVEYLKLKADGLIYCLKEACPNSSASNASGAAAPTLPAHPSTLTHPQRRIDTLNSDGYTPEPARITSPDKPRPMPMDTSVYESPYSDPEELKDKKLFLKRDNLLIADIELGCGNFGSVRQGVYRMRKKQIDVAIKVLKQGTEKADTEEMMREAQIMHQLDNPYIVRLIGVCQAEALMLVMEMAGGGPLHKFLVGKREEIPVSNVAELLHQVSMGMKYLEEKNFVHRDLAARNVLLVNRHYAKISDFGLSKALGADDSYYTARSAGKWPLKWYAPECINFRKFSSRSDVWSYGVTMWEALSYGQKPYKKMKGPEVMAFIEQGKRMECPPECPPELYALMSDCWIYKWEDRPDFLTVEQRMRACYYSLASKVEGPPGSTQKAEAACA
Text: as §1, §2
Preparation of LAT-11 (SEQ ID NO:1): The peptide LAT-11 used as a substrate in the ZAP-70 kinase assay may be prepared as disclosed in Example 1A of WO 02/12275, the contents of which, particularly with reference to Example 1A, is incorporated herein by reference.
ZAP-70 Kinase assay: The activities of the agents of invention are determined in a homogenous ZAP-70 kinase assay based on time-resolved fluorescence resonance energy transfer. Briefly, 80 nM ZAP-70 are incubated with 80 nM Lck and 4 μM ATP in ZAP-70 kinase buffer (20 mM Tris, pH 7.5, 10 μM Na3VO4, 1 mM DTT, 1 mM MnCl2, 0.01% bovine serum albumin, 0.05% Tween 20) for 1 hour at room temperature in a siliconized polypropylene tube. Then, the selective Lck inhibitor PP2 (4-amino-5-(4-chloro-phenyl)-7-(t-butyl)pyrazolo[3,4-d]pyrimidine; Alexis Biochemicals) is added (final concentration 1.2 μM) and incubated for further 10 min. […] After 1 hour incubation at room temperature fluorescence is measured, e.g., on the Victor2 Multilabel Counter (Wallac) at 665 nm. […] The inhibition obtained in the presence of test compounds was calculated as percent inhibition of the high control. […]

[5] = system: Mouse mammary carcinoma 4T1 cells; assay: Anchorage-independent tumor cell growth assay; assay type: cell-based; conditions: Ultra low Attachment plates, 48 h, read-out: IC50, 50% inhibition of growth
Method: Mouse mammary carcinoma 4T1 cells (5×10^3) are plated in 96-well Ultra low Attachment plates (#3474, Corning Inc.) in […] of Dulbecco's modified eagle medium containing 10% FBS. Cells are cultured for 2 h and inhibitors are added at various concentrations in a final concentration of 0.1% DMSO. After 48 h, cell growth is assayed with the cell counting kit-8 (Wako Pure Chemical), which uses a water soluble tetrazolium salt WST8. Twenty μL of the reagent is added into each well and cells are further cultured for 2 h. The optical density is measured at 450 nm. The concentration of compound causing 50% inhibition of growth may thus be determined.

T1 sequence (Q05397 384-706): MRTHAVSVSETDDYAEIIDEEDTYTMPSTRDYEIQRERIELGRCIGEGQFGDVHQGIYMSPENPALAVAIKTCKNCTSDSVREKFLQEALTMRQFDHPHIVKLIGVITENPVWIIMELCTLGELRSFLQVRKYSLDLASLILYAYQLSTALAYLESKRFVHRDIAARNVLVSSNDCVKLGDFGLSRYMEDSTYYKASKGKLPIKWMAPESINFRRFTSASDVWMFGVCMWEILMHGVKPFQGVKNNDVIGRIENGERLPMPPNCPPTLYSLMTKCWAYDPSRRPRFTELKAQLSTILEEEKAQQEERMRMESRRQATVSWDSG
T3 sequence (P34152 whole entry): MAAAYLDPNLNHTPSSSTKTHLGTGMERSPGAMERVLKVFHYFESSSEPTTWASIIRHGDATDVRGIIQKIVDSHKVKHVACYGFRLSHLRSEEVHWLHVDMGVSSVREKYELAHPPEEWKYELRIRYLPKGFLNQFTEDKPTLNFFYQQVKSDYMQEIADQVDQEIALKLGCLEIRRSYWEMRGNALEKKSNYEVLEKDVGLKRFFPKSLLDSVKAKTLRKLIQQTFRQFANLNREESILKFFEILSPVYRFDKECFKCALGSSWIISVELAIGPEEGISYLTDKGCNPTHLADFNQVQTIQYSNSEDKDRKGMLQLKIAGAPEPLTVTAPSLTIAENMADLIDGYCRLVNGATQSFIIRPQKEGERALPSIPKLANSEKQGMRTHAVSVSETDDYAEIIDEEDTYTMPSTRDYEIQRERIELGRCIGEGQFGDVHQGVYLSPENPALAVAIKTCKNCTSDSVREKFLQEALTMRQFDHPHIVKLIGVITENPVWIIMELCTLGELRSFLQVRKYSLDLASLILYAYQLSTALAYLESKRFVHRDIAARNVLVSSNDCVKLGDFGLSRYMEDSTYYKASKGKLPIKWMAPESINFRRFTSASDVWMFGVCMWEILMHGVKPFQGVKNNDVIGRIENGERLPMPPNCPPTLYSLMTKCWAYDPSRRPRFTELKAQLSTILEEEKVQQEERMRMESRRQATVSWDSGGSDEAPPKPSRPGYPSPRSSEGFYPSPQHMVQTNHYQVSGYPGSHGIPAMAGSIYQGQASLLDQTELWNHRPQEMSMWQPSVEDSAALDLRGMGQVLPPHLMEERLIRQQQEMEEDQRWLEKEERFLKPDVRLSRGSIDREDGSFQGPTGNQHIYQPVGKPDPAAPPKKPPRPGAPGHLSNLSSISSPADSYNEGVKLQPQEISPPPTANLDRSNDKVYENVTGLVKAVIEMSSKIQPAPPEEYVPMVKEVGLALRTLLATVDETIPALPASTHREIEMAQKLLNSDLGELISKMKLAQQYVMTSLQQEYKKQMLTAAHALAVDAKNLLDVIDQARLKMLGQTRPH

SMILES: CNS(=O)(=O)c1ccccc1Nc1nc(Nc2cccc(C)c2)ncc1Br [Example 188]
- IC50 [1]: 15 nM

SMILES: Cc1cccc(Nc2ccnc(Nc3cccc(OCCn4ccnc4)c3)n2)c1S(N)(=O)=O [Example 128]
- IC50 [2]: 150 nM

SMILES: CNS(=O)(=O)c1cc(F)ccc1Nc1nc(Nc2cc(OC)c(OC)c(OC)c2)ncc1Br [Example 190]
- IC50 [3]: 440 nM

SMILES: COc1cc(Nc2nccc(Nc3cccc(OC)c3S(N)(=O)=O)n2)cc(OC)c1OC [Example 4, 2-Methoxy-6-[2-(3,4,5-trimethoxy-phenylamino)-pyrimidin-4-ylamino]-benzenesulfonamide]
- IC50 [4]: 12 nM

SMILES: CNS(=O)(=O)c1ccccc1Nc1nc(Nc2ccc3cn[nH]c3c2)ncc1Br [Example 198]
- IC50 [3]: 43 nM

SMILES: CNS(=O)(=O)c1ccccc1Nc1nc(Nc2cc(OC)c(OC)c(OC)c2)ncc1C(F)(F)F [Example 208]
- IC50 [1]: 1 nM

SMILES: COc1cc(Nc2nccc(Nc3cccc(C)c3S(N)(=O)=O)n2)cc(OC)c1OC [Example 3, 2-methyl-6-[2-(3,4,5-Trimethoxy-phenylamino)-pyrimidin-4-ylamino]-benzenesulfonamide]
- melting point: 72 to 75 °C

SMILES: CNS(=O)(=O)c1ccccc1Nc1nc(Nc2cc(OC)c(OC)c(OC)c2)ncc1Cl [Example 213]
- IC50 [5]: 16 nM
